Assay results taken from patent US12187758B2 (ROME Therapeutics, Inc., priority 2022, dated 2025).
Like-named read-outs stand apart in the source and are kept apart here.

Tests used:
THP1-Dual KO-TREX1 cells = test: THP1 TREX1 KO inhibition assay, combination dosing; type: cell-based; details: for EC50: Homo sapiens, THP1-Dual, read-out: EC50 of Compound 2
Experimental: Exemplary compounds were tested to determine the effect of combined dosing of two compounds on the type 1 interferon response in THP1 Dual TREX1 KO cells treated with 5-aza-2′-deoxycytidine. Assay procedures and results are described below.
THP1 Dual TREX1 KO cells were purchased from InvivoGen. The THP1-Dual™ KO-TREX1 cells were cultured in RPMI 1640, 10% heat-inactivated fetal bovine serum, 25 mM HEPES, 10 μg/mL blasticidin, and 100 μg/mL Zeocin. THP1-Dual™ KO-TREX1 cells were treated with a dose titration of test compound in the presence of 1 μM 5-aza-2′-deoxycytidine (Sigma, cat #189825). Type 1 Interferon and cell viability were assessed after five days of treatment.
Stock solution of test compounds stampidine and Compound 2 were prepared in DMSO followed by a three-fold dilution in DMSO. The plate was prepared with a matrix of test compound concentrations, with stampidine on the y-axis (final concentrations 3 μM to 0.0003 μM) and Compound 2 on the x-axis (final concentrations 0.3 μM to 0.00003 μM). Additional 50× dilution was prepared in cell culture media for each dilution. 10 μL of diluted test compound was then added to a 384-well plate.
THP1-Dual™ KO-TREX1 cells were treated with 1 μM 5-aza-2′-deoxycytidine. THP1-Dual™ KO-TREX1 cells (50 μL) were added to each well of the 384-well plate containing test compound titration at 10,000 cells/well. Cells were incubated at 37° C., 5% CO2 in a humidified incubator for five days. On day five, 20 μL of cell supernatant was transferred to a 384-well, white-walled plate, followed by addition to each well of 50 μL of QUANTI-LUC solution containing stabilizer. Luminescence was detected on a plate reader according to manufacturer's instructions. Percent inhibition of interferon was calculated using the following analysis: (Average DMSO-Sample)/(Average DMSO-Average 30 μM stampidine)*100.
The remaining cells were assessed for cell viability by adding 30 μl of CellTiter-Glo (Promega, G9683) solution to each well, and placed on a shaker for 10 minutes at room temperature. Luminescence was detected on a plate reader, according to manufacturer's instructions. Percent inhibition of cell viability using CellTiter-Glo was calculated using the following analysis: (Average DMSO−Sample)/(Average DMSO−Average 20 μM viability control reagent)*100.
Combination analysis was performed using the Bivariate Response to Additive Interacting Doses (BRAID) according to Twarog, N. R., et al. Scientific Reports 6:25523 (DOI: 10.1038/srep25523). The best BRAID fit was determined to be k 2.00 (0.583-3.64), where k>0 denotes synergy, k=0 denotes additivity, and k<0 denotes antagonism. Potentiation modeling curves are provided for potentiation of Compound 2 at four concentrations of stampidine (FIG. 7A) and for potentiation of stampidine at four concentrations of Compound 2 (FIG. 7B).

[1] = tested on: THP1-Dual KO-TREX1 xenograft tumors; test: Altering IFN production in THP1-Dual KO-TREX1 mouse xenografts (Compound 67); type: in vivo, CB-17 SCID female mice; details: decitabine 5 mg/kg SC, compound 0.3-100 mg/kg PO once daily for 5 days; tumors 4 h post-last dose; FIG. 9
Experimental: Exemplary Compound 67 was tested for its ability to alter IFN levels in THP1-Dual™ KO-TREX1 xenografts in mice. Assay procedures are described below.
CB-17 SCID female mice were inoculated subcutaneously with 10 million THP1-Dual™ KO-TREX1 cells in 200 μl PBS with Matrigel (1:1) and grouped at N=5 per treatment per sampling timepoint when tumor volume reached an average of 340 mm^3. Six groups were co-administered: (1) decitabine (DAC) at 5 mg/kg SC, once daily, for 5 days, and (2) test compound 67 at one of six doses (0.3 mg/kg PO, 1 mg/kg PO, 3 mg/kg PO, 10 mg/kg PO, 30 mg/kg PO, 100 mg/kg PO) once daily, for 5 days. Two additional groups were administered (1) decitabine and test compound vehicle control SC+PO, once daily, for 5 days, and (2) decitabine at 5 mg/kg SC, once daily, for 5 days. […]
Tumors were harvested 4 h post-last dose administered on day 5, grinded in PBS at 50 Hz for 5 min, kept on ice for 30 min while being vortexed every 5 min. […] Equal amounts of proteins were added to 96-well black plates, and luciferase signal was measured using the QUANTI-Luc™ detection medium according to manufacturer's instructions. Luminescence was measured using the EnVision® 2105 Multimode Plate Reader.
Experimental results are depicted in FIG. 9. […] In FIG. 9, IFN signal was measured in tumors harvested from mice 4 hours after the final decitabine and test compound dosing on day 5.

Structure (SMILES)	EC50 (THP1-Dual KO-TREX1 cells; Stampidine 0 μM)	EC50 (THP1-Dual KO-TREX1 cells; Stampidine 0.001 μM)	EC50 (THP1-Dual KO-TREX1 cells; Stampidine 0.01 μM)	EC50 (THP1-Dual KO-TREX1 cells; Stampidine 0.1 μM)	BRAID fit k (k>0 denotes synergy) (THP1-Dual KO-TREX1 cells; combination of stampidine and Compound 2, 1 μM 5-aza-2′-deoxycytidine, five days)	inhibition of DAC-induced IFN signal in THP1 tumors [1]
Nc1ccn([C@H]2C[C@H](O)[C@](CO)(CCl)O2)c(=O)n1 [Compound 2, 4-amino-1-((2R,4S,5R)-5-(chloromethyl)-4-hydroxy-5-(hydroxymethyl)tetrahydrofuran-2-yl)pyrimidin-2(1H)-one]	0.04 µM	0.0335 µM	0.0203 µM	0.00015 µM	2.00 (0.583-3.64)	
Nc1nc(=O)n([C@@H]2O[C@@](CO)(CCl)[C@@H](O)[C@@H]2F)cc1F [Compound 67, 4-amino-1-[(2R,3S,4R,5R)-5-(chloromethyl)-3-fluoro-4-hydroxy-5-(hydroxymethyl)oxolan-2-yl]-5-fluoropyrimidin-2-one]						dose-response inhibition of DAC-induced IFN signal
